Measurements from patent US20040092575A1, “Use of certain substituted pyrrolidones such as piracetam in the treatment of viral and other diseases” (priority 2001, published 2004).

Experiments:
[1] = target: T1, Alzheimer's β-amyloid tilted peptide 29-40 (Homo sapiens, UniProt P05067); assay: fusion process induced by Alzheimer's β-amyloid tilted peptide 29-40 on membrane models; details: amyloid peptide 29-40
T1 construct: two Alzheimer's β-amyloid tilted peptides (29-40 and 29-42) on membrane models
Method: (§1) Four fundamental studies using different tools such as conformational analysis, biophysical methods, NMR and two-hybrid assay were carried out.

[2] = system: herpes simplex virus 1 (HSV1); details: Vero cells culture, in vitro; cited from earlier work
hepatitis C virus (HCV) = assay: Effect of piracetam on patients exhibiting chronic C virus hepatitis; assay type: in vivo
Source text: 6 patients with chronic transfusion associated hepatitis C virus (HCV) received 6 months therapy with piracetam at a daily dose of 10.8 g (3×3.6 g/d) with no other treatment associated. This was followed by a 3 months period of no treatment. All patients, interferon non-responders, had chronic hepatitis from 6 to 19 years. The main criterion of efficacy was serum viral load (HCV-RNA) performed by polymerase chain reaction (PCR) at 0, 3, 6 and 9 months. These patients had manifested a gradual rise in their HCV-RNA. Thus, the criteria for no response was defined as no change in the increase of HCV-RNA, a positive response as a status quo of serum HVC-RNA and a significant response as a decrease of at least half a log of HCV-RNA.

acute viral hepatitis = assay: Effect of piracetam on patients exhibiting acute viral hepatitis; assay type: in vivo
Method: 110 patients with acute hepatitis, hospitalised from the first or the second week of icterus, were included in the study. All patients were assigned to rest, and received diet and vitamins.
A first group received piracetam at a daily dose of 2.4 g (3×0.8 g/day), a second group received no piracetam and acted as control group. The main parameters were serum bilirubine and transaminases, measured once a week during the whole icterus period.
Inclusion criteria were bilirubine ([…]) (N<0.3) and transaminases (>400 U) (N<40).
The criteria for a positive response were bilirubine <1.5 mg/dl and transaminases <100 U.

[3] = system: A-201 cells devoid of CD4 receptors; assay: formation of syncitia by fusion of infected cells with uninfected neighbouring cells, A-201 cells; assay type: cell-based, HIV; details: no CD4 receptor, accordingly to the doses used
Source text: (§2) HV has the property on cultured cells to provoke the formation of syncitia by fusion of infected cells with uninfected neighboring cells, when the virus ends its replication.
(§3) Virus have become remarkably opportunistic in exploring whatever complicated shapes they may find on the host cell surface as binding receptors (e.g. CD4, CXCR4, CCR5, CKR-5, CKR-3).
(§4) This study therefore investigated the ability of piracetam to inhibit the formation of syncitia, […], the primary binding receptor of HIV. For this purpose, two cultures of cells were used, A-201 cells devoid of CD4 receptors and SUP-Ti cells presenting CD4 receptors.

[4] = target: T2, Alzheimer's β-amyloid tilted peptide 29-42 (Homo sapiens, UniProt P05067); assay: fusion process induced by Alzheimer's β-amyloid tilted peptide 29-42 on membrane models; details: amyloid peptide 29-42
T2 construct: two Alzheimer's β-amyloid tilted peptides (29-40 and 29-42) on membrane models
Method: as §1

[5] = target: titled peptide of SIV-wt (12AA) (Simian immunodeficiency virus, UniProt P05885); assay: fusion of large unilamellar vesicles (LUV) provoked by tilted peptide of SIV-wt; details: at the doses tested
[6] = system: SUP-Ti cells presenting CD4 receptors; assay: formation of syncitia by fusion of infected cells with uninfected neighbouring cells, SUP-Ti cells; assay type: cell-based, HIV; details: CD4 receptor present, accordingly to the doses used
Source text: as §2, §3, §4

[7] = target: T3, titled peptide of HUV-wt (wild type)(16 AA) (Human immunodeficiency virus type 1 group M subtype B, UniProt P04578); assay: fusion of large unilamellar vesicles (LUV) provoked by tilted peptide of HUV-wt; parameters: species or system HIV; details: at the doses tested
T3 construct: titled peptide of HUV-wt (wild type)(16 AA)

viral tilted peptide = assay: fusion process induced on LUV by the viral tilted peptide (analogues); details: at the doses tested
Source text: The same in vitro study as in Example 1 was used to investigate two analogues (levetiracetam and (R)-(−)-alpha-ethyl-2-oxo-1-pyrrolidine acetamide) in comparison with piracetam.

[8] = piracetam introduced after incubation of peptide with liposomes, whatever the dose
[9] = preincubation of piracetam before addition of the peptide
[10] = patients receiving piracetam from the first week of icterus

Compound: NC(=O)CN1CCCC1=O [piracetam, 2-oxo-pyrrolidineacetamide]
- inhibition of the fusion process on membrane models ([1]; four studies overall): inhibit the fusion process
- inhibition of the fusion process [1, 8]: not able to inhibit
- inhibition of the fusion process [1, 9]: inhibits almost completely
- ability to stop the replication of HSV1 [2]: stop the replication
- Clinical tolerance (hepatitis C virus (HCV); chronic HCV patients, 10.8 g daily (3×3.6 g/d), 6 months): excellent
- change of serum HCV-RNA (hepatitis C virus (HCV); four of 6 patients, PCR, 10.8 g daily): decrease
- decrease of serum HCV-RNA (hepatitis C virus (HCV); the patient most recently infected (6 years), significant): < 0.6 log
- increase of serum HCV-RNA (hepatitis C virus (HCV); two of 6 patients, PCR, 10.8 g daily): < 10%
- Clinical tolerance (acute viral hepatitis; acute hepatitis patients, 2.4 g daily (3×0.8 g/day)): excellent
- reduction of the icterus phase (acute viral hepatitis; compared to the control group, except for 6 patients out of 49): 50%
- evolution in serum bilirubine levels (acute viral hepatitis; [10]): positive evolution was especially observed
- evolution in serum transaminases (acute viral hepatitis; [10]): more pronounced
- bilirubine levels (acute viral hepatitis; patients receiving piracetam from the second week of icterus): not significantly reduced
- evolution in serum transaminases (acute viral hepatitis; patients receiving piracetam, 2.4 g daily): favourable, although non-significant
- evolution in serum bilirubine levels (acute viral hepatitis; piracetam group vs control group, 2.4 g daily, p<0.0003): very highly significantly reduced
- inhibition of the formation of syncitia [3]: inhibited
- inhibition of the fusion process on membrane models ([4]; four studies overall): inhibit the fusion process
- inhibition of the fusion process [4, 8]: not able to inhibit
- inhibition of the fusion process [4, 9]: inhibits almost completely
- inhibition of the fusion of LUV [5]: inhibits the fusion of LUV
- inhibition of the formation of syncitia [6]: inhibited
- inhibition of the fusion of LUV [7]: inhibits the fusion of LUV

Compound: CC[C@H](C(N)=O)N1CCCC1=O [(R)-(−) alpha-ethyl-2-oxo-1-pyrrolidineacetamide]
- inhibitory effect on the fusion process induced on LUV (viral tilted peptide): very clear inhibitory effect

Compound: CC[C@@H](C(N)=O)N1CCCC1=O [levetiracetam, (S)-α-ethyl-2-oxo-1-pyrrolidineacetamide]
- inhibitory effect on the fusion process induced on LUV (viral tilted peptide): very clear inhibitory effect
